Reference: PubChem BioAssay AID248 (DTP/NCI, 2004)
Where “and” joins values, the source holds several entries; their conditions need not be identical. Identical values can stand only once. Inconclusive results and toxic doses are left out. Cut-off read from the data, not from the text of the source: active = T/C of 150% or more; inactive = T/C below 125%.

System: L1210 leukemia ip in BDF1 mice, survival T/C
Experiment: NCI In Vivo Anticancer Drug Screen. Data for tumor model L1210 Leukemia (intraperitoneal) in B6D2F1 (BDF1) mice
Conditions: endpoint: mean survival time, higher = longer survival
Procedure, shortened: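 Value reflects the ratio of survival in compound-treated mice to survival in vehicle-treated controls, with both groups carrying the same transplanted tumor.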

[1] = dose: 100.0 mg/kg/injection, schedule: Q01DX001 (ip), vehicle: saline
[2] = dose: 200.0 mg/kg/injection, schedule: Q01DX001 (ip), vehicle: saline
[3] = dose: 400.0 mg/kg/injection, schedule: Q01DX001 (ip), vehicle: saline
[4] = dose: 100.0 mg/kg/injection, schedule: Q01DX009 (ip), vehicle: Klucel (hydroxypropylcellulose) (HPC)
[5] = dose: 200.0 mg/kg/injection, schedule: Q01DX009 (ip), vehicle: Klucel (hydroxypropylcellulose) (HPC)
[6] = dose: 400.0 mg/kg/injection, schedule: Q01DX009 (ip), vehicle: Klucel (hydroxypropylcellulose) (HPC)
[7] = dose: 100.0 mg/kg/injection, schedule: Q04DX003 (ip), vehicle: Klucel (hydroxypropylcellulose) (HPC)
[8] = dose: 200.0 mg/kg/injection, schedule: Q04DX003 (ip), vehicle: Klucel (hydroxypropylcellulose) (HPC)
[9] = dose: 400.0 mg/kg/injection, schedule: Q04DX003 (ip), vehicle: Klucel (hydroxypropylcellulose) (HPC)

Measured: T/C

CCCCCCP(=O)(CCCCCC)C1CCCCC1
inactive: dose: 25.0 mg/kg/injection, schedule: Q01DX001 (ip), vehicle: Klucel (hydroxypropylcellulose) (HPC) 94 % of control | dose: 50.0 mg/kg/injection, schedule: Q01DX001 (ip), vehicle: Klucel (hydroxypropylcellulose) (HPC) 88 % of control | dose: 100.0 mg/kg/injection, schedule: Q01DX001 (ip), vehicle: Klucel (hydroxypropylcellulose) (HPC) 102 % of control | dose: 200.0 mg/kg/injection, schedule: Q01DX001 (ip), vehicle: saline with Tween-80 97 % of control

O=C(Nc1nc2ccccc2s1)C(F)(F)F
inactive: [1] 102 % of control | [2] 93 % of control | [3] 102 % of control

CCOC(=O)c1cc(Cl)c(N)c(Cl)c1
inactive: [4] 93 % of control | [5] 90 % of control | [6] 100 % of control

COc1ccc(Cl)cc1/C=C\C=N\NC(=O)C[N+](C)(C)C
inactive: dose: 15.0 mg/kg/injection, schedule: Q01DX001 (ip), vehicle: carboxymethylcellulose (CMC) 95 % of control | dose: 30.0 mg/kg/injection, schedule: Q01DX001 (ip), vehicle: carboxymethylcellulose (CMC) 93 % of control

CCOC(=O)C(=N\Nc1cc(C)ccc1C)/C(C)=N\NC(N)=S
inactive: dose: 75.0 mg/kg/injection, schedule: Q01DX001 (ip), vehicle: saline 87 % of control | dose: 150.0 mg/kg/injection, schedule: Q01DX001 (ip), vehicle: saline 97 % of control | dose: 300.0 mg/kg/injection, schedule: Q01DX001 (ip), vehicle: saline 97 % of control

CC(=O)OCCN1CCCCC1
inactive: dose: 100.0 mg/kg/injection, schedule: Q04DX002 (ip), vehicle: saline 94 % of control | dose: 200.0 mg/kg/injection, schedule: Q04DX002 (ip), vehicle: saline 94 % of control | dose: 400.0 mg/kg/injection, schedule: Q04DX002 (ip), vehicle: saline 97 % of control

COC(=O)c1ccc(O)c(Cl)c1
inactive: dose: 100.0 mg/kg/injection, schedule: Q01DX001 (ip), vehicle: carboxymethylcellulose (CMC) 96 % of control | dose: 100.0 mg/kg/injection, schedule: Q01DX009 (ip), vehicle: carboxymethylcellulose (CMC) 96 % of control | dose: 100.0 mg/kg/injection, schedule: Q04DX002 (ip), vehicle: carboxymethylcellulose (CMC) 103 % of control and 90 % of control | dose: 100.0 mg/kg/injection, schedule: Q04DX003 (ip), vehicle: carboxymethylcellulose (CMC) 97 % of control and 105 % of control | dose: 200.0 mg/kg/injection, schedule: Q01DX001 (ip), vehicle: carboxymethylcellulose (CMC) 97 % of control | dose: 200.0 mg/kg/injection, schedule: Q01DX009 (ip), vehicle: carboxymethylcellulose (CMC) 92 % of control | dose: 200.0 mg/kg/injection, schedule: Q04DX002 (ip), vehicle: carboxymethylcellulose (CMC) 105 % of control and 90 % of control | dose: 200.0 mg/kg/injection, schedule: Q04DX003 (ip), vehicle: carboxymethylcellulose (CMC) 100 % of control and 91 % of control | dose: 400.0 mg/kg/injection, schedule: Q01DX001 (ip), vehicle: carboxymethylcellulose (CMC) 91 % of control | dose: 400.0 mg/kg/injection, schedule: Q01DX009 (ip), vehicle: carboxymethylcellulose (CMC) 96 % of control | dose: 400.0 mg/kg/injection, schedule: Q04DX002 (ip), vehicle: carboxymethylcellulose (CMC) 97 % of control | dose: 400.0 mg/kg/injection, schedule: Q04DX003 (ip), vehicle: carboxymethylcellulose (CMC) 102 % of control and 103 % of control

COCCNC(=O)SCCC(=O)O
inactive: [1] 96 % of control | [2] 100 % of control | [3] 100 % of control

O=C(CCCC(=O)NNC(=S)Nc1ccccc1)NNC(=S)Nc1ccccc1
inactive: dose: 50.0 mg/kg/injection, schedule: Q01DX001 (ip), vehicle: saline 100 % of control | [1] 100 % of control | [2] 97 % of control | [3] 100 % of control

CCOC(=O)C(=Cc1cccc2ccccc12)C(=O)OCC
inactive: [4] 98 % of control | [7] 101 % of control | [5] 105 % of control | [8] 98 % of control | [6] 93 % of control | [9] 92 % of control

O=C(Nc1ccc(NC(=O)c2ccccc2)c2c1C(=O)c1ccccc1C2=O)c1ccccc1
inactive: [4] 96 % of control | dose: 100.0 mg/kg/injection, schedule: Q04DX002 (ip), vehicle: Klucel (hydroxypropylcellulose) (HPC) 100 % of control | [5] 96 % of control | dose: 200.0 mg/kg/injection, schedule: Q04DX002 (ip), vehicle: Klucel (hydroxypropylcellulose) (HPC) 93 % of control | [6] 107 % of control | dose: 400.0 mg/kg/injection, schedule: Q04DX002 (ip), vehicle: Klucel (hydroxypropylcellulose) (HPC) 103 % of control

C[C@]12CC[C@@H]3c4ccc(Oc5nc(N6CC6)nc(N6CC6)n5)cc4CC[C@H]3[C@@H]1CCC2=O
inactive: dose: 25.0 mg/kg/injection, schedule: Q01DX009 (ip), vehicle: steriod suspending solution 101 % of control | dose: 25.0 mg/kg/injection, schedule: Q01DX009 (oral), vehicle: carboxymethylcellulose (CMC) 106 % of control | dose: 25.0 mg/kg/injection, schedule: Q04DX003 (sc), vehicle: steriod suspending solution 106 % of control | dose: 50.0 mg/kg/injection, schedule: Q01DX009 (oral), vehicle: carboxymethylcellulose (CMC) 101 % of control | dose: 50.0 mg/kg/injection, schedule: Q04DX003 (sc), vehicle: steriod suspending solution 98 % of control | dose: 100.0 mg/kg/injection, schedule: Q01DX001 (sc), vehicle: steriod suspending solution 105 % of control | dose: 100.0 mg/kg/injection, schedule: Q01DX009 (oral), vehicle: carboxymethylcellulose (CMC) 104 % of control | dose: 100.0 mg/kg/injection, schedule: Q04DX003 (sc), vehicle: steriod suspending solution 101 % of control | dose: 200.0 mg/kg/injection, schedule: Q01DX001 (sc), vehicle: steriod suspending solution 118 % of control | dose: 400.0 mg/kg/injection, schedule: Q01DX001 (sc), vehicle: steriod suspending solution 107 % of control

C=CCn1c2ccccc2c2cc3cnccc3c(C)c21
inactive: dose: 6.25 mg/kg/injection, schedule: Q04DX003 (ip), vehicle: Klucel (hydroxypropylcellulose) (HPC) 100 % of control | dose: 12.5 mg/kg/injection, schedule: Q04DX003 (ip), vehicle: Klucel (hydroxypropylcellulose) (HPC) 97 % of control | dose: 25.0 mg/kg/injection, schedule: Q04DX003 (ip), vehicle: Klucel (hydroxypropylcellulose) (HPC) 100 % of control | [7] 102 % of control | [8] 97 % of control | [9] 105 % of control

CCOC(=O)CSc1ccc2c3c(cccc13)C(=O)OC2=O
inactive: dose: 20.0 mg/kg/injection, schedule: Q01DX009 (ip), vehicle: other 104 % of control | dose: 40.0 mg/kg/injection, schedule: Q01DX009 (ip), vehicle: other 98 % of control | dose: 80.0 mg/kg/injection, schedule: Q01DX009 (ip), vehicle: other 91 % of control | dose: 87.5 mg/kg/injection, schedule: Q01DX009 (ip), vehicle: other 92 % of control

CSCCCN
inactive: dose: 100.0 mg/kg/injection, schedule: Q01DX009 (ip), vehicle: saline 99 % of control | dose: 100.0 mg/kg/injection, schedule: Q04DX003 (ip), vehicle: saline 102 % of control | dose: 200.0 mg/kg/injection, schedule: Q01DX009 (ip), vehicle: saline 95 % of control | dose: 200.0 mg/kg/injection, schedule: Q04DX003 (ip), vehicle: saline 104 % of control | dose: 400.0 mg/kg/injection, schedule: Q01DX009 (ip), vehicle: saline 95 % of control | dose: 400.0 mg/kg/injection, schedule: Q04DX003 (ip), vehicle: saline 96 % of control

O=[N+]([O-])c1ccc(N/N=C/c2cc(Cl)cc(Cl)c2)c([N+](=O)[O-])c1
inactive: [1] 100 % of control | [2] 105 % of control | [3] 96 % of control
